In US20100323990A1, “SHIP 1 MODULATOR PRODRUGS” (THE UNIVERSITY OF BRITISH COLUMBIA, priority 2006, published 2010):
Blank lines part the entries; values can stand above or below the molecule they belong to.

Experiments:
[1] = tested on: SHIP+/+ bone marrow derived macrophages; assay: LPS-stimulated TNFα production in SHIP+/+ bone marrow derived macrophages; format: cell-based, mice; details: SHIP+/+ cells, 15 μM, 10 ng/mL LPS 2 h
Method: (§1) Bone marrow cells were aspirated from 4 to 8 week old C57B16×129Sv mixed background mice and SHIP^+/+ and SHIP^−/− mast cells prepared as described previously. Bone marrow derived macrophages from SHIP^+/+ and SHIP^−/− mice were obtained and maintained in IMDM supplemented with 10% FCS, 150 μM MTG, 2% C127 cell conditioned medium as a source of macrophage colony stimulating factor (M-CSF) (macrophage medium)
LPS stimulation of macrophages. For the analysis of LPS-stimulated TNFα production, 2×10^5 cells were plated the night before in 24 well plates in macrophage medium. The next day, the medium was changed and AQX-016A or carrier was added to cells at the indicated concentrations for 30 min prior to the addition of 10 ng/mL LPS. Supernatants were collected for TNFα determination by ELISA (BD Biosciences, Mississauga, ON, Canada). For analysis of intracellular signaling, 2×10^6 cells were plated the night before in 6 cm tissue culture plates. The next day, the cells were cultured in macrophage medium without M-CSF for 1 hr at 37° C. and then pretreated with AQX-016A or carrier for 30 min prior to the addition of 10 ng/mL LPS for 15 min. Cells were washed with 4° C. PBS and resuspended in lysis buffer (50 mM Hepes, 2 mM EDTA, 1 mM NaVO4, 100 mM NaF, 50 mM NaPPi and 1% NP40) supplemented with Complete Protease Inhibitor Cocktail (Roche, Montreal, Canada). Lysates were rocked at 4° C. for 30 min and clarified by centrifuging 20 min at 12000×g. Lysates were then made 1× in Laemmli's buffer, boiled 2 min and loaded onto 7.5% SDS polyacrylamide […]. Immunoblot analysis for phospho PKB (Cell Signalling, Mississauga, Ont), SHIP and actin (Santa Cruz, Santa Cruz, Calif.) were carried out as described previously. Stimulation of mast cells by FcεRI crosslinking. Mast cells were pre-loaded overnight in BMMC medium lacking IL-3 with 0.1 μg/ml anti-DNP IgE (SPE-7, Sigma, Oakville, Ont). For calcium flux measurements, cells were incubated with 2 μM fura 2-acetoxymethyl ester (Molecular Probes, Eugene, Oreg.) in Tyrode's buffer at 23° C. for 45 min. Cells were then washed and incubated in the presence of vehicle control, LY294002 or AQX-016A 30 min prior to stimulation with the indicated concentration of DNP-human serum albumin (DNP-HSA). Calcium influx was monitored by spectrofluorometry. For analysis of intracellular signaling, cells were pre-loaded with anti-DNP IgE as above, pre-treated with AQX-016A or buffer control for 30 min at 37° C. and stimulated with 20 ng/ml DNP-HSA for 5 min. Total cell lysates were then prepared and analyzed for phospho-PKB, phospho-p38^MAPK, phospho-MAPK, Grb-2 (Cell Signalling, Mississauga, Ont) and SHIP^6 by immunoblot analysis.
The target specificity and biological efficacy of AQX-016A were assessed by comparing AQX-016A's effects on PI3K-regulated processes in primary SHIP^+/+ vs SHIP^−/− macrophages and mast cells. […] LPS stimulation of macrophages is associated with a PIP3-dependent release of pro-inflammatory mediators such as TNFα. The action of AQX-016A on SHIP^+/+ vs SHIP^−/− bone marrow derived macrophages was examined. Cells were pretreated for 30 min with AQX-016A prior to stimulation with 10 ng/mL of LPS for 2 h. AQX-016A was able to suppress TNFα production in SHIP^+/+ cells by 30% at 3 μM and 50% at 15 μM (FIG. 8A). […] Activation of mast cells via IgE+ antigen crosslinking of their IgE receptors results in elevation of intracellular calcium levels.

[2] = tested on: SHIP−/− bone marrow derived macrophages; assay: LPS-stimulated TNFα production in SHIP−/− bone marrow derived macrophages; format: cell-based, mice; details: SHIP−/− cells, 15 μM, 10 ng/mL LPS 2 h
Method: as §1
LPS stimulation of macrophages. For the analysis of LPS-stimulated TNFα production, 2×10^5 cells were plated the night before in 24 well plates in macrophage medium. The next day, the medium was changed and AQX-016A or carrier was added to cells at the indicated concentrations for 30 min prior to the addition of 10 ng/mL LPS. Supernatants were collected for TNFα determination by ELISA (BD Biosciences, Mississauga, ON, Canada). For analysis of intracellular signaling, 2×10^6 cells were plated the night before in 6 cm tissue culture plates. […] Calcium influx was monitored by spectrofluorometry. […] Total cell lysates were then prepared and analyzed for phospho-PKB, phospho-p38^MAPK, phospho-MAPK, Grb-2 (Cell Signalling, Mississauga, Ont) and SHIP^6 by immunoblot analysis.
The target specificity and biological efficacy of AQX-016A were assessed by comparing AQX-016A's effects on PI3K-regulated processes in primary SHIP^+/+ vs SHIP^−/− macrophages and mast cells. […]

SHIP enzyme = assay: In vitro SHIP enzyme assay (Assay 1), phosphate release by Malachite Green; format: biochemical; details: PI-3,4-P2 20 μM, Compound 100 3 μM, 30 μM IP4
Method: (§2) Assay 1) In vitro testing in a SHIP enzyme assay. Test compounds were dissolved in a suitable solvent (e.g. EtOH, DMSO and others) and diluted into aqueous buffer (20 mM Tris HCl, pH 7.5 and 10 mM MgCl2). SHIP enzyme assays were performed in 96-well microtitre plates with 10 ng of enzyme/well in a total volume of 25 μL of 20 mM Tris HCl, pH 7.5 and 10 mM MgCl2. SHIP enzyme was incubated with test extracts (provided in solvent) or vehicle for 15 min at 23° C. before the addition of 100 μM inositol-1,3,4,5-tetrakisphosphate (Echelon Biosciences Inc, Salt Lake City, Utah). After 20 min at 37° C. and the amount of inorganic phosphate released assessed by the addition of Malachite Green reagent and absorbance measurement at 650 nm. Assay 2) Macrophage TNF-α production. J774.1a macrophage cells were treated with 10 μg/mL of test compound dissolved in solvent (e.g. cyclodextran) for 40 minutes prior to the addition of 100 ng/mL LPS. Culture supernatants were collected after 2 hr and 5 hr for TNF-α determination by ELISA. Assay 3) Macrophage TNF-α NO assay. J774.1a macrophage cells were treated with 10 μg/ml of test compound dissolved in solvent for 40 minutes prior to the addition of LPS. Culture supernatants were collected after 24 hr. for determination of NO concentration using the Griess reagent. Assay 4) Stimulation of mast cells by FcεRI crosslinking. Mast cells were pre-loaded overnight in BMMC medium lacking IL-3 with 0.1 μg/ml anti-DNP IgE (SPE-7, Sigma, Oakville, Ont). For calcium flux measurements, cells were incubated with 2 μM fura 2-acetoxymethyl ester (Molecular Probes, Eugene, Oreg.) in Tyrode's buffer at 23° C. for 45 min. Cells were then washed and incubated in the presence of the test compound 30 min prior to stimulation with the indicated concentration of DNP-human serum albumin (DNP-HSA). Calcium influx was monitored by spectrofluorometry as described previously. For analysis of intracellular signaling, cells were pre-loaded with anti-DNP IgE as above, pre-treated with the test compound for 30 min at 37° C. and stimulated with 20 ng/ml DNP-HSA for 5 min. Total cell lysates were then prepared and analyzed for phospho-PKB, phospho-p38^MAPK, phospho-MAPK, Grb-2 (Cell Signalling, Mississauga, Ont) and SHIP^6 by immunoblot analysis. Assay 5) Mouse acute cutaneous anaphylaxis model. 6-8 week old CD1 mice (University of British Columbia Animal Facility, Vancouver, BC) were sensitized to the hapten DNP by cutaneous application of 25 μL of 0.5% dinitrofluorobenzene (DNFB) (Sigma, Oakville, Ont) in acetone to the shaved abdomen of mice for two consecutive days. 24 hrs later, test substances (dissolved in 10 μL of 1:2 DMSO:MeOH) were painted on the right ear while the left ear received vehicle control. 30 min after drug application, DNFB was applied to both ears to induce mast cell degranulation. A 6 mm punch was taken from the ear and immediately frozen on dry ice for subsequent determination of neutrophil myeloperoxidase (MPO) activity. Assay 6) Mouse endotoxemia model. 6-8 week old C57B16 mice (VCHRI Mammalian Model of Human Disease Core Facility, Vancouver, BC) were orally administered the test compound 30 min prior to an IP injection of 2 mg/kg of LPS (E. Coli serotype 0111:B4, Sigma, Oakville, Ont). Blood was drawn 2 hrs later for determination of plasma TNFα by ELISA. Assay 7) In vitro Mulitple Myeloma (MM) assay. The ability of SHIP activators to reduce tumor cell survival was assessed in MM cell lines treated with the test compound. The lines OPM1, OPM2, MM.1S and RPMI 8226 were plated at a density of 1×10^5 cells/mL in 200 μL of medium with various concentrations of the test compound, and viable cell numbers were determined on day 3 and day 5 by trypan blue exclusion. The lines RPMI 8226 and U266 were plated at a density of 1×10^6 cells/mL in 250 μL of medium with various concentrations of the test compound. At day 4, the medium of each culture was replaced by fresh medium containing the same concentration of test compound. […]

ΔC2 SHIP = target: T1, ΔC2 SHIP (Homo sapiens, UniProt Q92835, DEL725-863); assay: SHIP enzyme assay with C2 domain deleted SHIP; format: biochemical; details: PI-3,4-P2 20 μM, Compound 100 3 μM, 30 μM IP4
T1 construct: His6; made in house; host or cells: mammalian expression vector pME18S
T1 sequence (Q92835 with tags, fused parts or gaps DEL725-863): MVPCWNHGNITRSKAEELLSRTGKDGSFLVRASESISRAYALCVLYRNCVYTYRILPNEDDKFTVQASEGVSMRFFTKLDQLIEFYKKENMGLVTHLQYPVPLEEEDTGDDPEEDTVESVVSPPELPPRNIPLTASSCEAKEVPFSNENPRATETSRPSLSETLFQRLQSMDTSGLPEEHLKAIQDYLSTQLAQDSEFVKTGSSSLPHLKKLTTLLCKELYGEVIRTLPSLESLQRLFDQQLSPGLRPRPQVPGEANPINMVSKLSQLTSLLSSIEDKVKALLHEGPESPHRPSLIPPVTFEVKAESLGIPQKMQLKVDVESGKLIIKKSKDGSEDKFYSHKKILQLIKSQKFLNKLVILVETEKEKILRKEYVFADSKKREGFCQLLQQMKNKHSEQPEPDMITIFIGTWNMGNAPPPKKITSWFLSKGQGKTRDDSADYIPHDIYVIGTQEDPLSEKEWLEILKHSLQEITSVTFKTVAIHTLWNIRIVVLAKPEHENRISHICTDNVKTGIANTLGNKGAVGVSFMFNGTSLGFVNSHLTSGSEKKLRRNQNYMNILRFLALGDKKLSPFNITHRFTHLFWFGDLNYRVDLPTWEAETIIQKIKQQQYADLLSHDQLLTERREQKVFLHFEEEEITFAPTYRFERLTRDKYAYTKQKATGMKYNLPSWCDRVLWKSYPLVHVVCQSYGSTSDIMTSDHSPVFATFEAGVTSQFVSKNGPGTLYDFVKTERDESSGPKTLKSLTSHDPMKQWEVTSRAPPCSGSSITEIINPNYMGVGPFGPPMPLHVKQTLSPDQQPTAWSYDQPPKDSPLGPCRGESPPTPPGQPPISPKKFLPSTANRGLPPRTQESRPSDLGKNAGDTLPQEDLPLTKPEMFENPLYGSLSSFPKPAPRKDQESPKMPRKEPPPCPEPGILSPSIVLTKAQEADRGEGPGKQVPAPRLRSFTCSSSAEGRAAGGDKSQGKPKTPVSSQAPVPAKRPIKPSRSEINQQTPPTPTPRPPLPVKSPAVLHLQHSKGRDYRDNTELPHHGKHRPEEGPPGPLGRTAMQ
Excerpt: A His6 tagged SHIP ΔC2 domain deletion mutant (deleting residues 725 to 863) in the mammalian expression vector pME18S was generated by a standard PCR-based methodology. An N-terminal His6 C2 domain construct was also generated by PCR inserted into the pET28C bacterial expression vector using EcoRI and NdeI restriction sites.
The allosteric regulation of enzymes has remained under-appreciated primarily because allosteric effectors are not easy to find. The molecular mechanism by which Compound 100 activated SHIP was investigated, first by performing classical enzyme kinetic analysis of its phosphatase activity. Activity measurements were performed with substrate concentrations from 10-100 μM.
The SHIP protein contains a C2 domain located at the carboxyterminal end of its phosphatase domain. […] SHIP lacking its the C2 domain (ΔC2 SHIP) was prepared.

J774.1 macrophage cells = assay: TNFα production in LPS-stimulated J774.1 macrophages (Example 9); format: cell-based; details: 2 ng/mL LPS
Method: An assay to determine the relative inhibition of TNFα production by Compound 103 compared to Compound 100 was conducted as follows.
J774.1 macrophage cells were plated at 2×10^5 cells/well in 24 well plates. The next day the media was changed and Compound 100, Compound 103 or cyclodextrin carrier were added to the wells at the indicated concentrations for 30 min prior to stimulation of the cells with 2 ng/mL lipopolysaccharide (LPS). LPS activation of macrophages leads to production of TNF alpha which can be detected in the culture supernatant and quantified by ELISA. The results are depicted in a graph in FIG. 1.

J774.1a macrophage cells [3] = assay: Macrophage TNF-α NO assay (Assay 3), Griess reagent; format: cell-based; details: 10 μg/ml test compound, LPS, supernatants after 24 hr; also: key: a ‘+’ indicates a positive result for desired activity; a ‘−’ indicates a negative result for desired activity
Method: as §2

J774.1a macrophage cells [4] = assay: Macrophage TNF-α production (Assay 2); format: cell-based; details: 10 μg/mL test compound, 100 ng/mL LPS, supernatants after 2 hr and 5 hr; also: key: a ‘+’ indicates a positive result for desired activity; a ‘−’ indicates a negative result for desired activity
Method: as §2

SMILES: O=c1cc(N2CCOCC2)oc2c(-c3ccccc3)cccc12 [LY294002, reference compound]
suppression of TNFα production [1]: ~40%
suppression of TNFα production [2]: ~40%

enhancement of ΔC2 SHIP activity (ΔC2 SHIP): could not be enhanced
SMILES: CCCCCCCCCCCCCCCC(=O)OC[C@H](COP(=O)(O)O[C@H]1[C@H](O)[C@@H](O)[C@H](OP(=O)(O)O)[C@@H](OP(=O)(O)O)[C@H]1O)OC(=O)CCCCCCCCCCCCCCC [PI-3,4-P2, reference compound]
activation of wild-type SHIP enzyme (SHIP enzyme): activated wild-type SHIP enzyme to a similar extent as Compound 100

SMILES: Cc1cc(OC(=O)CN)cc2c1[C@]1(C)CCC3C(C)(C)CCC[C@]3(C)[C@H]1C2 (stereo partly shown) [Compound 103]
relative inhibition of TNFα production (J774.1 macrophage cells): Inhibits TNF Alpha Production Better than Compound 100
Assay 3: Macrophage NO assay, desired activity (J774.1a macrophage cells [3]): +
Assay 2: Macrophage TNF-α production, desired activity (J774.1a macrophage cells [4]): +
